Assay results taken from US11179341B2, “Self-righting articles” (priority 2017, dated 2021).

Test system: Micrococcus lysodeikticus cells
Test: Lysozyme enzyme activity assay
Assay type: biochemical
Conditions: micropost tips 80% lysozyme and 20% PEO 200 k, versus uncompressed powder
Experimental: To measure the activity of lysozyme, the assay provided by Sigma Aldrich was used which measures the amount of lysed Micrococcus lysodeikticus cells. Briefly, a 200 unit/mL Lysozyme solution in 50 mM Potassium Phosphate Buffer was added to a 0.015% [w/v] Micrococcus lysodeikticus cell suspension in the same buffer. The decrease was recorded in A450 over 5 minutes. Nine micropost tips were fabricated from 80% lysozyme and 20% PEO 200 k and dissolved sets of three micropost tips together. Triplicate assays were performed on each dissolved solution for a total of nine tests and the results were compared to the results of a solution made with lysozyme that was not compressed into a micropost tip.

In the case of lysozyme, the “lysozyme activity after the manufacturing process” value is reported as “maintain their activity”.
